Test results reported in PubChem BioAssay (NCI).
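Compound exposure: 48 hours, 5 concentrations, 96-well plates. TGI: concentration producing complete growth inhibition.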 Where a SMILES comes first, the peptide text is derived from it. The star is where a group is joined. Cbz = O=C(OCc1ccccc1)*

What follows are compounds tested on SK-MEL-2 melanoma (assay: NCI tumour cell line growth inhibition, 48 h).
Compound `Cc1cc2oc(=N)c(C#N)c(C)c2cc1C` has a TGI of over 100 µM. With `CN(C)CCCC12CCCCC1=Nc1ccccc12` (configuration not stated) the TGI was over 100 µM. With `CCOC(=O)CC[C@H](NC(=O)[C@H](N)Cc1ccc(N(CCCl)CCCl)cc1)C(=O)OCC` the TGI was 63.2 µM. `CN=C(N=Nc1c(O)[nH]c2ccccc12)SCC(=O)c1ccc(Br)cc1` gave a TGI of over 100 µM. Work on `O=C1CCCC1CN1CCCC1` (configuration not stated) yielded a TGI of 18.5 µM. `Nc1nc(N)c2c3c(cnc2n1)CC(c1ccccc1)CC3` (configuration not stated) gave a TGI of over 100 µM. With `N#Cc1c(N)nc2n[nH]c(N)c2c1-c1ccc(Cl)cc1` the TGI was 6.57 µM. For `COc1cc(NS(C)(=O)=O)ccc1Nc1c2ccccc2nc2c1[nH]c1ccc(NC3OC(CO)C(O)C(O)C3O)cc12` (configuration not stated), the TGI was 1.36 µM. In the case of `COC(=O)C1=C(C(=O)NNc2ccccc2)N(c2cccnc2Cl)C(c2ccccc2)=CC1c1ccccc1` (configuration not stated), the TGI is reported as 76.6 µM. Compound `O=C(O)CCC(NC(=O)OCc1ccccc1)C(=O)NC(Cc1cnc[nH]1)C(=O)O` (stereo not drawn) (Cbz-Glu-His-OH; configuration not given here) has a TGI of over 100 µM. In the case of `CCOC(=O)c1nnc2c(C(=O)OCC)c3ccccc3n2c1N`, the TGI is reported as over 100 µM. Work on `Clc1ccc(C2C3COc4ccccc4C3=NN2c2ccccc2)cc1` (configuration not stated) yielded a TGI of over 100 µM. Work on `CC12CC(c3ccccc3O1)C(C(=O)Nc1ccc(Cl)cc1Cl)C(=O)N2` (configuration not stated) yielded a TGI of over 100 µM. `NC(=O)C(C(N)=O)=C(O)C(=O)/C=C(\O)c1ccccc1` was tested, and the TGI was over 100 µM. With `COC(=O)C1=C(O)C(C(=O)OC)[C@]2(O)[C@H](C(=O)OC)[C@H]1C[C@@H](c1ccc(C(F)(F)F)cc1)[C@H]2C(=O)OC` (some centres not stated) the TGI was 15.1 µM. With `CCOC(=O)C12OC(CCC1=O)C(C(=O)OC)=C2C(=O)OC` (configuration not stated) the TGI was over 10 µM. Compound `NNC(=O)c1n[nH]nc1C(=O)NN` has a TGI of over 100 µM. For `CCOC(=O)NC(Nc1ccc(S(=O)(=O)Nc2nc(C)cc(C)n2)cc1)(C(=O)OCC)C(F)(F)F` (configuration not stated), the TGI was over 100 µM. For `CN1CCN(C(=S)N2CCN(C)CC2)CC1`, the TGI was over 100 µM. Compound `Nc1nc(SC/C=C/c2ccccc2)c2[nH]cnc2n1` has a TGI of over 100 µM. Work on `CC(=O)c1c(C)n([O-])c2cc(Cl)c(Cl)cc2[n+]1=O` yielded a TGI of over 100 µM. Work on `O=c1c(/C=C/c2c(O)ccc3ccccc23)nnc2sc(-c3cccc(Br)c3)nn12` yielded a TGI of over 100 µM. With `C/C=C(/C)C(=O)O[C@@H]1CCN2CC[C@H](COC(=O)/C(=C/C)CO)C12` (some centres not stated) the TGI was over 100 µM.

These compounds were tested on PC-3 prostate (assay: NCI tumour cell line growth inhibition, 48 h).
`Cc1cc2oc(=N)c(C#N)c(C)c2cc1C` gave a TGI of over 100 µM. With `CN(C)CCCC12CCCCC1=Nc1ccccc12` (configuration not stated) the TGI was over 100 µM. `CCOC(=O)CC[C@H](NC(=O)[C@H](N)Cc1ccc(N(CCCl)CCCl)cc1)C(=O)OCC` showed a TGI of over 75.1 µM. With `CN=C(N=Nc1c(O)[nH]c2ccccc12)SCC(=O)c1ccc(Br)cc1` the TGI was 29.4 µM. Compound `O=C1CCCC1CN1CCCC1` (configuration not stated) has a TGI of 35.2 µM. `Nc1nc(N)c2c3c(cnc2n1)CC(c1ccccc1)CC3` (configuration not stated) showed a TGI of over 100 µM. `N#Cc1c(N)nc2n[nH]c(N)c2c1-c1ccc(Cl)cc1` gave a TGI of 16.7 µM. With `COc1cc(NS(C)(=O)=O)ccc1Nc1c2ccccc2nc2c1[nH]c1ccc(NC3OC(CO)C(O)C(O)C3O)cc12` (configuration not stated) the TGI was 3.6 µM. `COC(=O)C1=C(C(=O)NNc2ccccc2)N(c2cccnc2Cl)C(c2ccccc2)=CC1c1ccccc1` (configuration not stated) was tested, and the TGI was over 100 µM. Compound `O=C(O)CCC(NC(=O)OCc1ccccc1)C(=O)NC(Cc1cnc[nH]1)C(=O)O` (stereo not drawn) (Cbz-Glu-His-OH; configuration not given here) has a TGI of over 100 µM. In the case of `CCOC(=O)c1nnc2c(C(=O)OCC)c3ccccc3n2c1N`, the TGI is reported as over 100 µM. Work on `Clc1ccc(C2C3COc4ccccc4C3=NN2c2ccccc2)cc1` (configuration not stated) yielded a TGI of over 100 µM. `CC12CC(c3ccccc3O1)C(C(=O)Nc1ccc(Cl)cc1Cl)C(=O)N2` (configuration not stated) was tested, and the TGI was over 100 µM. Compound `NC(=O)C(C(N)=O)=C(O)C(=O)/C=C(\O)c1ccccc1` has a TGI of over 100 µM. `COC(=O)C1=C(O)C(C(=O)OC)[C@]2(O)[C@H](C(=O)OC)[C@H]1C[C@@H](c1ccc(C(F)(F)F)cc1)[C@H]2C(=O)OC` (some centres not stated) gave a TGI of 94.6 µM. `CCOC(=O)C12OC(CCC1=O)C(C(=O)OC)=C2C(=O)OC` (configuration not stated) showed a TGI of over 10 µM. `NNC(=O)c1n[nH]nc1C(=O)NN` gave a TGI of over 100 µM. `CCOC(=O)NC(Nc1ccc(S(=O)(=O)Nc2nc(C)cc(C)n2)cc1)(C(=O)OCC)C(F)(F)F` (configuration not stated) showed a TGI of over 100 µM. Work on `CN1CCN(C(=S)N2CCN(C)CC2)CC1` yielded a TGI of over 100 µM. With `Nc1nc(SC/C=C/c2ccccc2)c2[nH]cnc2n1` the TGI was over 100 µM. For `CC(=O)c1c(C)n([O-])c2cc(Cl)c(Cl)cc2[n+]1=O`, the TGI was over 100 µM. Compound `O=c1c(/C=C/c2c(O)ccc3ccccc23)nnc2sc(-c3cccc(Br)c3)nn12` has a TGI of over 100 µM. Work on `C/C=C(/C)C(=O)O[C@@H]1CCN2CC[C@H](COC(=O)/C(=C/C)CO)C12` (some centres not stated) yielded a TGI of over 100 µM.

What follows are compounds tested on MALME-3M melanoma (assay: NCI tumour cell line growth inhibition, 48 h).
`Cc1cc2oc(=N)c(C#N)c(C)c2cc1C` was tested, and the TGI was over 100 µM. With `CN(C)CCCC12CCCCC1=Nc1ccccc12` (configuration not stated) the TGI was over 100 µM. Compound `CCOC(=O)CC[C@H](NC(=O)[C@H](N)Cc1ccc(N(CCCl)CCCl)cc1)C(=O)OCC` has a TGI of 9.92 µM. `CN=C(N=Nc1c(O)[nH]c2ccccc12)SCC(=O)c1ccc(Br)cc1` gave a TGI of over 47.1 µM. Compound `O=C1CCCC1CN1CCCC1` (configuration not stated) has a TGI of 3.72 µM. `Nc1nc(N)c2c3c(cnc2n1)CC(c1ccccc1)CC3` (configuration not stated) was tested, and the TGI was over 100 µM. `N#Cc1c(N)nc2n[nH]c(N)c2c1-c1ccc(Cl)cc1` was tested, and the TGI was 8.69 µM. `COc1cc(NS(C)(=O)=O)ccc1Nc1c2ccccc2nc2c1[nH]c1ccc(NC3OC(CO)C(O)C(O)C3O)cc12` (configuration not stated) gave a TGI of 1.43 µM. `COC(=O)C1=C(C(=O)NNc2ccccc2)N(c2cccnc2Cl)C(c2ccccc2)=CC1c1ccccc1` (configuration not stated) gave a TGI of over 100 µM. `O=C(O)CCC(NC(=O)OCc1ccccc1)C(=O)NC(Cc1cnc[nH]1)C(=O)O` (stereo not drawn) (Cbz-Glu-His-OH; configuration not given here) showed a TGI of over 100 µM. `CCOC(=O)c1nnc2c(C(=O)OCC)c3ccccc3n2c1N` gave a TGI of 7.57 µM. In the case of `Clc1ccc(C2C3COc4ccccc4C3=NN2c2ccccc2)cc1` (configuration not stated), the TGI is reported as over 100 µM. `CC12CC(c3ccccc3O1)C(C(=O)Nc1ccc(Cl)cc1Cl)C(=O)N2` (configuration not stated) gave a TGI of 89.8 µM. `NC(=O)C(C(N)=O)=C(O)C(=O)/C=C(\O)c1ccccc1` gave a TGI of over 100 µM. For `COC(=O)C1=C(O)C(C(=O)OC)[C@]2(O)[C@H](C(=O)OC)[C@H]1C[C@@H](c1ccc(C(F)(F)F)cc1)[C@H]2C(=O)OC` (some centres not stated), the TGI was 22.4 µM. In the case of `CCOC(=O)C12OC(CCC1=O)C(C(=O)OC)=C2C(=O)OC` (configuration not stated), the TGI is reported as over 10 µM. `NNC(=O)c1n[nH]nc1C(=O)NN` gave a TGI of 33.1 µM. `CCOC(=O)NC(Nc1ccc(S(=O)(=O)Nc2nc(C)cc(C)n2)cc1)(C(=O)OCC)C(F)(F)F` (configuration not stated) gave a TGI of over 100 µM. Compound `CN1CCN(C(=S)N2CCN(C)CC2)CC1` has a TGI of over 100 µM. Work on `Nc1nc(SC/C=C/c2ccccc2)c2[nH]cnc2n1` yielded a TGI of over 100 µM. Work on `CC(=O)c1c(C)n([O-])c2cc(Cl)c(Cl)cc2[n+]1=O` yielded a TGI of 26.4 µM. Compound `O=c1c(/C=C/c2c(O)ccc3ccccc23)nnc2sc(-c3cccc(Br)c3)nn12` has a TGI of over 100 µM. With `C/C=C(/C)C(=O)O[C@@H]1CCN2CC[C@H](COC(=O)/C(=C/C)CO)C12` (some centres not stated) the TGI was 84.2 µM.

These compounds were tested on MDA-N (assay: NCI tumour cell line growth inhibition, 48 h).
`Cc1cc2oc(=N)c(C#N)c(C)c2cc1C` was tested, and the TGI was over 100 µM. `CN(C)CCCC12CCCCC1=Nc1ccccc12` (configuration not stated) gave a TGI of over 100 µM. For `CCOC(=O)CC[C@H](NC(=O)[C@H](N)Cc1ccc(N(CCCl)CCCl)cc1)C(=O)OCC`, the TGI was over 50.8 µM. Compound `CN=C(N=Nc1c(O)[nH]c2ccccc12)SCC(=O)c1ccc(Br)cc1` has a TGI of over 100 µM. For `O=C1CCCC1CN1CCCC1` (configuration not stated), the TGI was 26.8 µM. `Nc1nc(N)c2c3c(cnc2n1)CC(c1ccccc1)CC3` (configuration not stated) was tested, and the TGI was over 100 µM. Compound `N#Cc1c(N)nc2n[nH]c(N)c2c1-c1ccc(Cl)cc1` has a TGI of over 100 µM. Work on `COc1cc(NS(C)(=O)=O)ccc1Nc1c2ccccc2nc2c1[nH]c1ccc(NC3OC(CO)C(O)C(O)C3O)cc12` (configuration not stated) yielded a TGI of 2.71 µM. `COC(=O)C1=C(C(=O)NNc2ccccc2)N(c2cccnc2Cl)C(c2ccccc2)=CC1c1ccccc1` (configuration not stated) showed a TGI of 45.6 µM. For `O=C(O)CCC(NC(=O)OCc1ccccc1)C(=O)NC(Cc1cnc[nH]1)C(=O)O` (stereo not drawn) (Cbz-Glu-His-OH; configuration not given here), the TGI was over 100 µM. Work on `CCOC(=O)c1nnc2c(C(=O)OCC)c3ccccc3n2c1N` yielded a TGI of over 100 µM. For `Clc1ccc(C2C3COc4ccccc4C3=NN2c2ccccc2)cc1` (configuration not stated), the TGI was over 67.4 µM. With `CC12CC(c3ccccc3O1)C(C(=O)Nc1ccc(Cl)cc1Cl)C(=O)N2` (configuration not stated) the TGI was over 100 µM. `NC(=O)C(C(N)=O)=C(O)C(=O)/C=C(\O)c1ccccc1` gave a TGI of over 100 µM. Compound `COC(=O)C1=C(O)C(C(=O)OC)[C@]2(O)[C@H](C(=O)OC)[C@H]1C[C@@H](c1ccc(C(F)(F)F)cc1)[C@H]2C(=O)OC` (some centres not stated) has a TGI of 17.2 µM. `CCOC(=O)C12OC(CCC1=O)C(C(=O)OC)=C2C(=O)OC` (configuration not stated) was tested, and the TGI was over 10 µM. Work on `NNC(=O)c1n[nH]nc1C(=O)NN` yielded a TGI of over 100 µM. In the case of `CCOC(=O)NC(Nc1ccc(S(=O)(=O)Nc2nc(C)cc(C)n2)cc1)(C(=O)OCC)C(F)(F)F` (configuration not stated), the TGI is reported as over 100 µM. `CN1CCN(C(=S)N2CCN(C)CC2)CC1` was tested, and the TGI was over 100 µM. `Nc1nc(SC/C=C/c2ccccc2)c2[nH]cnc2n1` showed a TGI of over 100 µM. `CC(=O)c1c(C)n([O-])c2cc(Cl)c(Cl)cc2[n+]1=O` showed a TGI of over 100 µM. `O=c1c(/C=C/c2c(O)ccc3ccccc23)nnc2sc(-c3cccc(Br)c3)nn12` was tested, and the TGI was over 100 µM. `C/C=C(/C)C(=O)O[C@@H]1CCN2CC[C@H](COC(=O)/C(=C/C)CO)C12` (some centres not stated) gave a TGI of over 100 µM.
